The source of these data is patent US20050202513A1.

For data set [1], the system named is cancer patient. The data set is described as follows: Echocardiogram analysis, ejection fraction of the heart. In kind it is in vivo, human. The following applies: cancer patient administered with adriamycin, healthy volunteer not less than 60%. The protocol: By the echocardiogram analysis, the heart pump function was evaluated based on the ejection fraction (EF) of the heart as calculated by the following formula: Ejection fraction (%)={(left ventricular relaxation terminal diameter^2−left ventricular contraction terminal diameter^2)/left ventricular relaxation terminal diameter^2)×100
The ejection fraction of healthy volunteers is known to be not less than 60%.

Data set [2] concerns cancer patient. The data set is described as follows: Blood serum human H-FABP level, sandwich ELISA (MARKIT M H-FABP kit). To be noted: cut-off 6.2 ng/mL.
Data set [3] relates to cancer patient. The data set is described as follows: Blood Myosin Light Chain I level, sandwich RIA. The following applies: cut-off 2.5 ng/mL.
The subject of data set [4] is cancer patient. The data set is described as follows: Electrocardiogram analysis. In kind it is in vivo, human. The following applies: adriamycin patient.
Data set [5] has as its system cancer patient. The data set is described as follows: Measurement of creatine kinase in blood.
Data set [6] has as its system cancer patient. The data set is described as follows: Blood Troponin T level, sandwich ELISA. The following applies: cut-off 0.1 ng/mL. A general note: In an ELISA, binding on a coated surface is turned into a signal by an enzyme label.
Data set [7] deals with cancer patient. The data set is described as follows: Clinical diagnosis of cardiac function. In kind it is in vivo, human. To be noted: cancer patient administered with daunorubicin hydrochloride; expression of generalized edema. The protocol:
The second blood sampling in the Table was performed one month after the first blood sampling.

[8] abbreviates: adriamycin patient, first blood sampling.
Where [9] appears, read: adriamycin patient, second blood sampling.
The mark [10] stands for this setting: adriamycin patient, third blood sampling.
Where [11] appears, read: daunorubicin hydrochloride patient, first blood sampling.
Where [12] appears, read: daunorubicin hydrochloride patient, second blood sampling (one month after the first).

Molecules are shown by their SMILES. Entries after “also recorded” stand apart in the source; their conditions may differ. Counter-ions that a name gives are not always drawn.

`COc1cccc2c1C(=O)c1c(O)c3c(c(O)c1C2=O)C[C@@](O)(C(=O)CO)C[C@@H]3O[C@H]1C[C@H](N)[C@H](O)[C@H](C)O1` [adriamycin, Doxorubicin hydrochloride]: the “EF (ejection fraction)” value stood at 53% in data set [1] (first blood sampling) and 37% in data set [1] (third blood sampling (20 days after the second)). Moreover, the “Blood concentration Human H-FABP” value in data set [2] (adriamycin patient, blood serum, first blood sampling) was found to be 6.8 ng/mL; in data set [2] (adriamycin patient, blood serum, second blood sampling (about 2.5 months after the first)), 9.0 ng/mL; in data set [2] (adriamycin patient, blood serum, third blood sampling (20 days after the second)) it was 19.6 ng/mL. The “Blood concentration Myosin Light Chain I” value in data set [3] (setting [8]), in data set [3] (setting [9]) and in data set [3] (setting [10]) was under 1.0 ng/mL throughout. Further, the Electrocardiogram finding result is “T wave decreased; also recorded: sinus tachycardia and supraventricular extrasystole” in data set [4] (about 1 week before the third blood sampling, hydrochloride); “extension of QTc” in data set [4] (about 2 weeks before the first blood sampling). The “Blood concentration Creatine kinase” value in data set [5] (adriamycin patient, first blood sampling, healthy 25-180 U/L (male), 20-150 U/L (female)) is recorded as 37 U/L; in data set [5] (adriamycin patient, second blood sampling (about 2.5 months after the first)) it was 36 U/L; in data set [5] (adriamycin patient, third blood sampling (20 days after the second)), 33 U/L. For the same compound, the “Blood concentration Troponin T” value is under 0.01 ng/mL in data set [6] (setting [8]), 0.01 ng/mL in data set [6] (setting [9]) and 0.41 ng/mL in data set [6] (setting [10]).
In the case of `COc1cccc2c1C(=O)c1c(O)c3c(c(O)c1C2=O)C[C@@](O)(C(C)=O)C[C@@H]3O[C@H]1C[C@H](N)[C@H](O)[C@H](C)O1` [daunorubicin hydrochloride], the “Blood concentration Human H-FABP” value in data set [2] (setting [11]) worked out at 7.6 ng/mL; in data set [2] (setting [12]), 6.9 ng/mL. Besides, the “Blood concentration Myosin Light Chain I” value is given as under 1.0 ng/mL in data set [3] (setting [11]) and 1.4 ng/mL in data set [3] (setting [12]). Further, the “Blood concentration Creatine kinase” value is on record as 11 U/L in data set [5] (daunorubicin hydrochloride patient with cardiac failure, first blood sampling) and 7 U/L in data set [5] (daunorubicin hydrochloride patient with cardiac failure, second blood sampling (one month after the first)). Moreover, the “Blood concentration Troponin T” value in data set [6] (setting [11]) and in data set [6] (setting [12]) was under 0.01 ng/mL throughout. In addition, in data set [7], the Diagnosis entry is reported as “cardiac failure”.
